Here are results for two compounds from patent publication US7972800B2, “Screening method for binding property or signal transduction alterations” (Takeda Pharmaceutical Company Limited, priority 2003, dated 2011).

SMILES strings stand for the structures.

Experiment [1] relates to GPR39-expressed UM-UC-3 cells. Kind of experiment: IL-8 secretion from GPR39-expressed UM-UC-3 cells, quantified by EIA. The class given is cell-based, human. To be noted: 1 mM copper chloride, 12 hours incubation, culture supernatant. Here is the method:
Using GPR39-expressed UM-UC-3 cells, the effects of adding metal ions as the agonist for GPR39 were examined.
After washing with PBS, the cells were scraped off using trypsin and centrifuged for recovery. […] Next, the suspension was dispensed in a 6-well plate (Falcon) at 5 ml each per well, followed by incubation overnight in a CO2 incubator.
Then, 5 ml each was added to each well, followed by incubation at 37° C. in a CO2 incubator for […]. […] After the culture supernatant was recovered, IL-8 contained in the samples was quantified by EIA (Amersham).

Experiment [2] deals with rat GPR39. It counts as cell-based. To be noted: FLIPR, Fluo-3AM (FIG. 9 through FIG. 13). Here is the method:
Using the CHO cell line where rat GPR39 was stably expressed, the agonist activity of metal ions was detected using FLIPR in terms of the intracellular calcium-increasing reaction as an indicator. The CHO cell line used, wherein rat GPR39 was stably expressed, was cultured in HAM's αMEM (Invitrogen Corp.) containing 10% calf fetal serum (Invitrogen Corp.). On the day before the assay was conducted, the human GPR39-expressing CHO cell line was cultured in a culture flask to reach a confluent state. After washing with PBS, the cells were scraped off using trypsin and centrifuged for recovery. The cells were then suspended in medium and the suspension was adjusted to 3×10^5 cells/ml. Then, the suspension was dispensed onto a black walled 96-well plate (Costar) in 100 μl each per well, followed by incubation overnight in a CO2 incubator.
(§1) On the day when the assay was conducted, various test samples were added to the cells and the changes of intracellular calcium levels in this case were determined by FLIPR (Molecular Device). In order to determine the changes in intracellular calcium levels on FLIPR, the cells were pre-treated by the following procedures. First, for the purpose of adding a fluorescent dye Fluo-3AM (DOJIN) to the cells or washing the cells immediately before the FLIPR assay, an assay buffer was prepared. A solution was prepared by adding 20 ml of 1M HEPES (pH 7.4) (DOJIN) to 1000 ml of HBSS (Invitrogen Corp.) (hereinafter HBSS/HEPES solution), to which solution was added 10 ml of a solution mixture obtained by dissolving 710 mg of Probenecid (Sigma) in 5 ml of 1N NaOH and further adding 5 ml of HBSS/HEPES solution thereto. The resulting solution was used as the assay buffer. Next, 50 μg of Fluo-3AM was dissolved in 21 μl of DMSO (DOJIN) and an equal volume of 20% Pluronic acid (Molecular Probes) was added to and mixed with the solution. The mixture was then added to 10.6 ml of the assay buffer supplemented with 105 μl of fetal calf serum to prepare a fluorescent dye solution. The medium for the CHO cells where human GPR39 was stably expressed was removed. Immediately thereafter, the fluorescent dye solution was dispensed in 100 μl each/well and the cells were incubated in a CO2 incubator for an hour so that the fluorescent dye was taken up into the cells. The cells after the incubation was washed with the assay buffer described above and set on FLIPR. A test sample to be added to the CHO cells where rat GPR39 was stably expressed was prepared using the assay buffer and set on FLIPR at the same time. Following the pre-treatment above, the changes in intracellular calcium levels after the addition of each test sample were determined by FLIPR.

The test system of experiment [3] is UM-UC-3. To be noted: FLIPR. As for the experimental part: as §1, with “Immediately thereafter, the fluorescent dye solution was dispensed in 100 μl each/well and the cells were incubated in a CO2 incubator for an hour so that the fluorescent dye was taken up into the cells. The cells after the incubation was washed with the assay buffer described above and set on FLIPR. A test sample to be added to the CHO cells where rat GPR39 was stably expressed was prepared using the assay buffer and set on FLIPR at the same time.” left out, “FLIPR. […]” for “FLIPR.”

Experiment [4] deals with HT-1197. To be noted: FLIPR. Here is the method: as §1, with “Immediately thereafter, the fluorescent dye solution was dispensed in 100 μl each/well and the cells were incubated in a CO2 incubator for an hour so that the fluorescent dye was taken up into the cells. The cells after the incubation was washed with the assay buffer described above and set on FLIPR. A test sample to be added to the CHO cells where rat GPR39 was stably expressed was prepared using the assay buffer and set on FLIPR at the same time.” left out, “FLIPR. […]” for “FLIPR.”

The target in experiment [5] is T1, human GPR39 (Homo sapiens, UniProt O43194).
T1 sequence (O43194 1-453): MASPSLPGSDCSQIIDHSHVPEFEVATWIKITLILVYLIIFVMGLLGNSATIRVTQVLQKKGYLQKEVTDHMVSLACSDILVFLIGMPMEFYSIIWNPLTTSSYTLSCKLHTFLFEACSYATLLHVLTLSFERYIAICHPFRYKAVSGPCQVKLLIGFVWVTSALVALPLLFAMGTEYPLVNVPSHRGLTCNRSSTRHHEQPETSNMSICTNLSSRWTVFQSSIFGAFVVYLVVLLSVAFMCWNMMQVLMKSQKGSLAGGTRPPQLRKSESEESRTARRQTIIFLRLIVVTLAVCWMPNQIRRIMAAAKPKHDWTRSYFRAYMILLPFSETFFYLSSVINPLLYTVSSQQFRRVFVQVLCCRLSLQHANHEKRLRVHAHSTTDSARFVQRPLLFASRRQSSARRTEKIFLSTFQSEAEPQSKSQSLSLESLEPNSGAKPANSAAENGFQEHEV
To be noted: Cytosensor, CHO/hGPR39 (FIG. 8). As for the experimental part:
(§2) Activation of the intracellular signal transduction system by ligands using a Cytosensor was determined in terms of the pH changes by metabolism of cells as an indicator.
(§3) The procedures were as follows. On the previous day, the human GPR39-expressing CHO cell line was cultured in a culture flask to reach a confluent state. After washing with PBS (Invitrogen Corp.), the cells were scraped off using trypsin (Invitrogen Corp.) and centrifuged for recovery. The cells were then suspended in medium and the suspension was adjusted to 3×10^5 cells/ml. The capsule of Cytosensor capsule kit (Molecular Device) was placed on a 12-well plate (Costar) and 1 ml of the cell suspension was charged therein. After covering with the lid, the cells were incubated at 37° C. in an incubator until next day. On the day when the assay was conducted, Cytosensor was activated as instructed by the protocol. Then, RPMI1640 medium (pH 7.4) (Invitrogen Corp.) for Cytosensor was prepared and equilibrated. The spacer was then placed in the capsule where the cells prepared on the previous day were seeded, and the capsule was set on Cytosensor. After equilibration with the medium, a sample was added to the cells by switching the flow path and pH changes were determined.

Experiment [6] concerns mock cells where GPR39 was not expressed. To be noted: Cytosensor, mock cells where GPR39 was not expressed (FIG. 8). As for the experimental part:
as §2, §3

The target in experiment [7] is TGR7 (Homo sapiens, UniProt Q8TDS7). To be noted: Cytosensor, TGR7-expressed cells (FIG. 8). Here is the method: as §2, §3
TGR7, sequence (Q8TDS7 whole entry): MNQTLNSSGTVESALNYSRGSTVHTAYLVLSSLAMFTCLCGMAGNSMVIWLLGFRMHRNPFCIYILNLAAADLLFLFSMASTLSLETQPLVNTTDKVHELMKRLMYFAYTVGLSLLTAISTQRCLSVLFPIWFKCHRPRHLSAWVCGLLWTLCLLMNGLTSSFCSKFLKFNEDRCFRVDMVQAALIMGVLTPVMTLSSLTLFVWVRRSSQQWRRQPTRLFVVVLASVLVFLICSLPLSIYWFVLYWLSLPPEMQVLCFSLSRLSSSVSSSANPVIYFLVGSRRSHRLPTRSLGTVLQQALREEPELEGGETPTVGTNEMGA

Turning to `[Cl][Cu][Cl]` [copper chloride], the “amount of IL-8 accumulated relative to absence of copper chloride” value in experiment [1] is on record as “approximately twice”. For the same compound, the “intracellular calcium levels of CHO/rGPR39” value in experiment [2] was “dose-dependently increased”.

As to `[Cl][Ni][Cl]` [nickel chloride], the “reaction (change in intracellular calcium levels) in UM-UC-3” value in experiment [3] is on record as “a reaction with nickel was detected”. The “reaction (change in intracellular calcium levels) in HT-1197” value in experiment [4] is “a reaction with nickel was detected”. Further, the “cell response (pH change, acidification rate) in GPR39-expressed cells” value in experiment [5] is given as “a cell response specific to nickel was detected”. Also, in experiment [6], the “cell response (pH change) in mock cells” value is “any response was not detected”. In addition, the “cell response (pH change) in other receptor TGR7 cells” value in experiment [7] is reported as “any response was not detected”. Moreover, the “intracellular calcium levels of CHO/rGPR39” value in experiment [2] was “dose-dependently increased”.
